Values after ≈ are worked out from the molar mass of the structure shown.
Legend:
Assay type in all cases: functional
Pichia kudriavzevii = experiment: Antifungal activity against Candida krusei AS 2.1045 measured after 24 hrs by micro-broth dilution assay
Candida albicans [1] = experiment: Antifungal activity against Candida albicans 901 measured after 24 hrs by micro-broth dilution assay
Candida albicans [2] = experiment: Antifungal activity against fluconazole-resistant Candida albicans 17 measured after 24 hrs by micro-broth dilution assay
Nakaseomyces glabratus = experiment: Antifungal activity against clinical isolate Candida glabrata measured after 24 hrs by micro-broth dilution assay
[Candida] zeylanoides = Antifungal activity against Candida zeylanoides CMGCC2.3739 measured after 24 hrs by micro-broth dilution assay; settings: Dujonia zeylanoides
Cryptococcus neoformans = experiment: Antifungal activity against Cryptococcus neoformans CGMCC2.3161 measured after 72 hrs by micro-broth dilution assay
Candida albicans [3] = experiment: Antifungal activity against Candida albicans ATCC SC5314 measured after 24 hrs by micro-broth dilution assay
Candida albicans [4] = experiment: Antifungal activity against fluconazole-resistant Candida albicans strain 904 measured after 24 hrs by micro-broth dilution assay
Aspergillus fumigatus = experiment: Antifungal activity against Aspergillus fumigatus CGMCC 3.7795 measured after 72 hrs by micro-broth dilution assay
Candida parapsilosis = experiment: Antifungal activity against Candida parapsilosis ATCC 22019 measured after 24 hrs by micro-broth dilution assay; settings: Lodderomyces parapsilosis
Candida albicans [5] = experiment: Antifungal activity against Candida albicans CPCC400616 measured after 24 hrs by micro-broth dilution assay
Candida albicans [6] = experiment: Antifungal activity against fluconazole-resistant Candida albicans CaR measured after 24 hrs by micro-broth dilution assay
Candida albicans [7] = experiment: Antifungal activity against fluconazole-resistant Candida albicans 632 measured after 24 hrs by micro-broth dilution assay

Row | Structure (SMILES) | MIC (Pichia kudriavzevii) | MIC (Candida albicans [1]) | MIC (Candida albicans [2]) | MIC (Nakaseomyces glabratus) | MIC ([Candida] zeylanoides) | MIC (Cryptococcus neoformans) | MIC (Candida albicans [3]) | MIC (Candida albicans [4]) | MIC (Aspergillus fumigatus) | MIC (Candida parapsilosis) | MIC (Candida albicans [5]) | MIC (Candida albicans [6]) | MIC (Candida albicans [7])
1 | COc1cc(C[Se]C(Cn2ccnc2)c2ccc(F)cc2F)cc(OC)c1 (stereo unspecified) | 8 µg/mL (≈ 18.3 µM) | 2 µg/mL (≈ 4.57 µM) | 8 µg/mL (≈ 18.3 µM) | 0.5 µg/mL (≈ 1.14 µM) | 1 µg/mL (≈ 2.29 µM) | 8 µg/mL (≈ 18.3 µM) | 0.13 µg/mL (≈ 0.297 µM) | 4 µg/mL (≈ 9.15 µM) | 8 µg/mL (≈ 18.3 µM) | 8 µg/mL (≈ 18.3 µM) | 0.5 µg/mL (≈ 1.14 µM) | 128 µg/mL (≈ 293 µM) | 8 µg/mL (≈ 18.3 µM)
2 | Fc1ccc(C[Se]C(Cn2ccnc2)c2ccc(F)cc2F)cc1 (stereo unspecified) | 1 µg/mL (≈ 2.53 µM) | 4 µg/mL (≈ 10.1 µM) | 32 µg/mL (≈ 81 µM) | 1 µg/mL (≈ 2.53 µM) | 1 µg/mL (≈ 2.53 µM) | 0.5 µg/mL (≈ 1.26 µM) | 0.03 µg/mL (≈ 0.0759 µM) | 8 µg/mL (≈ 20.2 µM) | 2 µg/mL (≈ 5.06 µM) | 0.25 µg/mL (≈ 0.632 µM) | 0.06 µg/mL (≈ 0.152 µM) | 8 µg/mL (≈ 20.2 µM) | 32 µg/mL (≈ 81 µM)
3 | COc1cc(C[Se]C(Cn2ccnc2)c2ccc(Cl)cc2Cl)cc(OC)c1 (stereo unspecified) | 8 µg/mL (≈ 17 µM) | 4 µg/mL (≈ 8.51 µM) | 32 µg/mL (≈ 68 µM) | 0.25 µg/mL (≈ 0.532 µM) | 1 µg/mL (≈ 2.13 µM) | 0.5 µg/mL (≈ 1.06 µM) | 0.13 µg/mL (≈ 0.276 µM) | 128 µg/mL (≈ 272 µM) | 1 µg/mL (≈ 2.13 µM) | 0.5 µg/mL (≈ 1.06 µM) | 0.13 µg/mL (≈ 0.276 µM) | 4 µg/mL (≈ 8.51 µM) | 32 µg/mL (≈ 68 µM)
4 | Cc1ccc(C[Se]C(Cn2ccnc2)c2ccc(F)cc2F)cc1 (stereo unspecified) | 2 µg/mL (≈ 5.11 µM) | 1 µg/mL (≈ 2.56 µM) | 2 µg/mL (≈ 5.11 µM) | 1 µg/mL (≈ 2.56 µM) | 0.5 µg/mL (≈ 1.28 µM) | 0.5 µg/mL (≈ 1.28 µM) | 0.06 µg/mL (≈ 0.153 µM) | 4 µg/mL (≈ 10.2 µM) | 1 µg/mL (≈ 2.56 µM) | 0.25 µg/mL (≈ 0.639 µM) | 0.25 µg/mL (≈ 0.639 µM) | 16 µg/mL (≈ 40.9 µM) | 16 µg/mL (≈ 40.9 µM)
5 | COc1ccc(C[Se]C(Cn2ccnc2)c2ccc(F)cc2F)cc1 (stereo unspecified) | 2 µg/mL (≈ 4.91 µM) | 8 µg/mL (≈ 19.6 µM) | 8 µg/mL (≈ 19.6 µM) | 0.5 µg/mL (≈ 1.23 µM) | 2 µg/mL (≈ 4.91 µM) | 0.5 µg/mL (≈ 1.23 µM) | 0.13 µg/mL (≈ 0.319 µM) | 2 µg/mL (≈ 4.91 µM) | 1 µg/mL (≈ 2.46 µM) | 0.25 µg/mL (≈ 0.614 µM) | 0.25 µg/mL (≈ 0.614 µM) | 8 µg/mL (≈ 19.6 µM) | 8 µg/mL (≈ 19.6 µM)
6 | COc1cccc(C[Se]C(Cn2ccnc2)c2ccc(F)cc2F)c1 (stereo unspecified) | 2 µg/mL (≈ 4.91 µM) | 8 µg/mL (≈ 19.6 µM) | 16 µg/mL (≈ 39.3 µM) | 1 µg/mL (≈ 2.46 µM) | 1 µg/mL (≈ 2.46 µM) | 0.5 µg/mL (≈ 1.23 µM) | 0.13 µg/mL (≈ 0.319 µM) | 16 µg/mL (≈ 39.3 µM) | 2 µg/mL (≈ 4.91 µM) | 0.5 µg/mL (≈ 1.23 µM) | 0.06 µg/mL (≈ 0.147 µM) | 4 µg/mL (≈ 9.82 µM) | 2 µg/mL (≈ 4.91 µM)
7 | Cc1cccc(C[Se]C(Cn2ccnc2)c2ccc(F)cc2F)c1 (stereo unspecified) | 1 µg/mL (≈ 2.56 µM) | 4 µg/mL (≈ 10.2 µM) | 8 µg/mL (≈ 20.4 µM) | 1 µg/mL (≈ 2.56 µM) | 1 µg/mL (≈ 2.56 µM) | 0.5 µg/mL (≈ 1.28 µM) | 0.06 µg/mL (≈ 0.153 µM) | 1 µg/mL (≈ 2.56 µM) | 2 µg/mL (≈ 5.11 µM) | 0.25 µg/mL (≈ 0.639 µM) | 0.13 µg/mL (≈ 0.332 µM) | 2 µg/mL (≈ 5.11 µM) | 16 µg/mL (≈ 40.9 µM)
8 | Cc1ccc(C[Se]C(Cn2ccnc2)c2ccc(Cl)cc2Cl)cc1C (stereo unspecified) | 128 µg/mL (≈ 292 µM) | 32 µg/mL (≈ 73 µM) | 8 µg/mL (≈ 18.3 µM) | 0.5 µg/mL (≈ 1.14 µM) | 128 µg/mL (≈ 292 µM) | 0.5 µg/mL (≈ 1.14 µM) | 4 µg/mL (≈ 9.13 µM) | 128 µg/mL (≈ 292 µM) | 4 µg/mL (≈ 9.13 µM) | > 128 µg/mL | 0.25 µg/mL (≈ 0.57 µM) | 128 µg/mL (≈ 292 µM) | 16 µg/mL (≈ 36.5 µM)
9 | Clc1ccc(C[Se]C(Cn2ccnc2)c2ccc(Cl)cc2Cl)cc1 (stereo unspecified) | 0.5 µg/mL (≈ 1.12 µM) | 8 µg/mL (≈ 18 µM) | 8 µg/mL (≈ 18 µM) | 1 µg/mL (≈ 2.25 µM) | 8 µg/mL (≈ 18 µM) | 0.25 µg/mL (≈ 0.562 µM) | 0.03 µg/mL (≈ 0.0675 µM) | > 128 µg/mL | 2 µg/mL (≈ 4.5 µM) | 0.5 µg/mL (≈ 1.12 µM) | 0.06 µg/mL (≈ 0.135 µM) | 16 µg/mL (≈ 36 µM) | 64 µg/mL (≈ 144 µM)
10 | COc1cc(Br)c(C[Se]C(Cn2ccnc2)c2ccc(Cl)cc2Cl)cc1OC (stereo unspecified) | > 128 µg/mL | 128 µg/mL (≈ 233 µM) | > 128 µg/mL | 0.5 µg/mL (≈ 0.91 µM) | > 128 µg/mL | 0.5 µg/mL (≈ 0.91 µM) | 0.03 µg/mL (≈ 0.0546 µM) | 32 µg/mL (≈ 58.3 µM) | 16 µg/mL (≈ 29.1 µM) | > 128 µg/mL | 0.25 µg/mL (≈ 0.455 µM) | 128 µg/mL (≈ 233 µM) | > 128 µg/mL
11 | Clc1ccc(C[Se]C(Cn2ccnc2)c2ccc(Cl)cc2Cl)c(Cl)c1 (stereo unspecified) | 2 µg/mL (≈ 4.17 µM) | 32 µg/mL (≈ 66.8 µM) | 16 µg/mL (≈ 33.4 µM) | 0.25 µg/mL (≈ 0.522 µM) | 2 µg/mL (≈ 4.17 µM) | 0.5 µg/mL (≈ 1.04 µM) | 0.06 µg/mL (≈ 0.125 µM) | 8 µg/mL (≈ 16.7 µM) | 0.5 µg/mL (≈ 1.04 µM) | 2 µg/mL (≈ 4.17 µM) | 0.06 µg/mL (≈ 0.125 µM) | 128 µg/mL (≈ 267 µM) | 64 µg/mL (≈ 134 µM)
12 | Fc1ccc(C(Cn2ccnc2)[Se]Cc2ccc(Br)cc2)c(F)c1 (stereo unspecified) | 1 µg/mL (≈ 2.19 µM) | 2 µg/mL (≈ 4.38 µM) | 2 µg/mL (≈ 4.38 µM) | 2 µg/mL (≈ 4.38 µM) | 0.25 µg/mL (≈ 0.548 µM) | 0.5 µg/mL (≈ 1.1 µM) | 0.13 µg/mL (≈ 0.285 µM) | 2 µg/mL (≈ 4.38 µM) | 1 µg/mL (≈ 2.19 µM) | 0.25 µg/mL (≈ 0.548 µM) | 0.25 µg/mL (≈ 0.548 µM) | 64 µg/mL (≈ 140 µM) | 8 µg/mL (≈ 17.5 µM)

From ChEMBL document CHEMBL4765323, “Design, synthesis, and biological evaluation of novel miconazole analogues containing selenium as potent antifungal agents” (Eur J Med Chem, 2020)
